Where two headings read alike, the source gives them in different places.
Target: human GPR52 (Homo sapiens, UniProt Q9Y2T5)
Experiment: GPR52 Agonist Functional cAMP Assay;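 note: HEKf cells transduced with GPR52 BacMam for 24 h, 2000 per well, exposed to compounds 30 min at 37° C with 0.5 mM IBMX, cAMP read by HTRF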
Details: for EC50: pEC50 average, HEKf cells infected with human GPR52 BacMam virus, cAMP HTRF, 30 min at 37° C.
[1] = maximal response normalised to DMSO (0%) and maximal compound 7m (J. Med. Chem., 2014, 57, 5226) response (100%)

Sequence of human GPR52 (Q9Y2T5 whole entry): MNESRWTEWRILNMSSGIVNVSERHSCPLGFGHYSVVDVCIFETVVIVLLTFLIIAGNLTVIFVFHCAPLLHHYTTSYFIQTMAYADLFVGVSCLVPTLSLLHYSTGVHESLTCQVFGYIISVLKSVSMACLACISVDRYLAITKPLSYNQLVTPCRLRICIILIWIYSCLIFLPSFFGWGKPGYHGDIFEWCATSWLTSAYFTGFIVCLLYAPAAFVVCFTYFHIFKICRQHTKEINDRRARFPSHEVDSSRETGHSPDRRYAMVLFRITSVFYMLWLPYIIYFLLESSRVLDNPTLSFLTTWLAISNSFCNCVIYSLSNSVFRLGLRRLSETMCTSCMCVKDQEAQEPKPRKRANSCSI

Compound	Emax [1]	EC50	Emax
COc1ncc(Cc2cc(-n3nc(C)c4c3CCNC4=O)ccn2)cc1F [Example 93, 1-(2-((5-fluoro-6-methoxypyridin-3-yl)methyl)pyridin-4-yl)-3-methyl-1,5,6,7-tetrahydro-4H-pyrazolo[4,3-c]pyridin-4-one]	83%	100 nM	–
O=C1NCCc2c1cnn2-c1ccnc(Cc2cnc3ccccc3c2)c1 [Example 67, 1-(2-(quinolin-3-ylmethyl)pyridin-4-yl)-1,5,6,7-tetrahydro-4H-pyrazolo[4,3-c]pyridin-4-one]	53%	1580 nM	–
O=C1NCCc2c1cnn2-c1ccnc(Cc2cc(C(F)(F)F)ccc2F)c1 [Example 30, 1-(2-(2-fluoro-5-(trifluoromethyl)benzyl)pyridin-4-yl)-1,5,6,7-tetrahydro-4H-pyrazolo[4,3-c]pyridin-4-one]	77%	794 nM	–
O=C1NCCc2c1cnn2-c1ccnc(Cc2cc(F)cc(Cl)c2)c1 [Example 20, 1-(2-(3-chloro-5-fluorobenzyl)pyridin-4-yl)-1,5,6,7-tetrahydro-4H-pyrazolo[4,3-c]pyridin-4-one]	101%	158 nM	–
O=C1NCCc2c1cnn2-c1ccnc(Cc2cc(Cl)c(F)c(C(F)(F)F)c2)c1 [Example 73, 1-(2-(3-chloro-4-fluoro-5-(trifluoromethyl)benzyl)pyridin-4-yl)-1,5,6,7-tetrahydro-4H-pyrazolo[4,3-c]pyridin-4-one]	88%	50.1 nM	–
O=C1NCCc2c1cnn2-c1ccnc(Cc2ccc(Cl)cc2)c1 [Example 19, 1-(2-(4-chlorobenzyl)pyridin-4-yl)-1,5,6,7-tetrahydro-4H-pyrazolo[4,3-c]pyridin-4-one]	–	631 nM	73%
Cc1nn(-c2ccnc(Cc3cc(F)c(F)c(C(F)(F)F)c3)c2)c2c1C(=O)NCC2 [Example 86, 1-(2-(3,4-difluoro-5-(trifluoromethyl)benzyl)pyridin-4-yl)-3-methyl-1,5,6,7-tetrahydro-4H-pyrazolo[4,3-c]pyridin-4-one]	102%	3.16 nM	–
O=C1NCCc2c1cnn2-c1ccnc(Cc2ccc3sccc3c2)c1 [Example 59, 1-(2-(benzo[b]thiophen-5-ylmethyl)pyridin-4-yl)-1,5,6,7-tetrahydro-4H-pyrazolo[4,3-c]pyridin-4-one]	79%	79.4 nM	–
N#Cc1cc(F)cc(Cc2cc(-n3ncc4c3CCNC4=O)ccn2)c1 [Example 96, 3-fluoro-5-((4-(4-oxo-4,5,6,7-tetrahydro-1H-pyrazolo[4,3-c]pyridin-1-yl)pyridin-2-yl)methyl)benzonitrile]	94%	794 nM	–
O=C1NCCc2c1cnn2-c1ccnc(Cc2cnc(OC(F)F)c(F)c2)c1 [Example 110, 1-(2-((6-(difluoromethoxy)-5-fluoropyridin-3-yl)methyl)pyridin-4-yl)-1,5,6,7-tetrahydro-4H-pyrazolo[4,3-c]pyridin-4-one]	74%	501 nM	–
Cc1cc(Cc2cc(-n3ncc4c3CCNC4=O)ccn2)cc(C(F)(F)F)c1 [Example 28, 1-(2-(3-methyl-5-(trifluoromethyl)benzyl)pyridin-4-yl)-1,5,6,7-tetrahydro-4H-pyrazolo[4,3-c]pyridin-4-one]	88%	100 nM	–
O=C1NCCc2c1cnn2-c1ccnc(Cc2cc(F)c(C(F)(F)F)c(F)c2)c1 [Example 70, 1-(2-(3,5-difluoro-4-(trifluoromethyl)benzyl)pyridin-4-yl)-1,5,6,7-tetrahydro-4H-pyrazolo[4,3-c]pyridin-4-one]	74%	316 nM	–
Cc1nn(-c2ccnc(Cc3cnc(OC(F)F)c(F)c3)c2)c2c1C(=O)NCC2 [Example 111, 1-(2-((6-(difluoromethoxy)-5-fluoropyridin-3-yl)methyl)pyridin-4-yl)-3-methyl-1,5,6,7-tetrahydro-4H-pyrazolo[4,3-c]pyridin-4-one]	87%	63.1 nM	–
O=C1NCCCc2nn(-c3cc(Cc4cccc(C(F)(F)F)c4)ccn3)nc21 [Example 45, 2-(4-(3-(trifluoromethyl)benzyl)pyridin-2-yl)-5,6,7,8-tetrahydro-[1,2,3]triazolo[4,5-c]azepin-4(2H)-one]	75%	631 nM	–
O=C1NOCc2c1cnn2-c1cc(Cc2cc(F)cc(C(F)(F)F)c2)ccn1 [Example 47, 1-(4-(3-fluoro-5-(trifluoromethyl)benzyl)pyridin-2-yl)-1,7-dihydropyrazolo[4,3-c/][1,2]oxazin-4(5H)-one]	81%	79.4 nM	–
N#Cc1cc(Cc2cc(-n3ncc4c3CCNC4=O)ccn2)cc(C(F)(F)F)c1 [Example 33, 3-((4-(4-oxo-4,5,6,7-tetrahydro-1H-pyrazolo[4,3-c]pyridin-1-yl)pyridin-2-yl)methyl)-5-(trifluoromethyl)benzonitrile]	58%	3160 nM	–

Compound	Emax [1]	EC50	Emax
O=C1NCCc2c1nnn2-c1cc(Cc2cc(F)cc(C(F)(F)F)c2)ccn1 [Example 99, 1-(4-(3-fluoro-5-(trifluoromethyl)benzyl)pyridin-2-yl)-1,5,6,7-tetrahydro-4H-[1,2,3]triazolo[4,5-c]pyridin-4-one]	95%	126 nM	–
O=C1c2cnn(-c3cc(Cc4cc(F)cc(C(F)(F)F)c4)ccn3)c2CCN1CCO [Example 107, 1-(4-(3-fluoro-5-(trifluoromethyl)benzyl)pyridin-2-yl)-5-(2-hydroxyethyl)-1,5,6,7-tetrahydro-4H-pyrazolo[4,3-c]pyridin-4-one]	99%	12.6 nM	–
Cc1cc(Cc2ccnc(-n3nc(C)c4c3CCNC4=O)c2)cnc1F [Example 83, 1-(4-((6-fluoro-5-methylpyridin-3-yl)methyl)pyridin-2-yl)-3-methyl-1,5,6,7-tetrahydro-4H-pyrazolo[4,3-c]pyridin-4-one]	93%	25.1 nM	–
O=C1NCCc2c1cnn2-c1ccnc(C(F)c2cc(F)cc(C(F)(F)F)c2)c1 (stereo not shown) [Example 37, 1-(2-(fluoro(3-fluoro-5-(trifluoromethyl)phenyl)methyl)pyridin-4-yl)-1,5,6,7-tetrahydro-4H-pyrazolo[4,3-c]pyridin-4-one]	93%	126 nM	–
O=C1NCCCc2c1nnn2-c1ccnc(Cc2cc(F)cc(C(F)(F)F)c2)c1 [Example 97, 1-(2-(3-fluoro-5-(trifluoromethyl)benzyl)pyridin-4-yl)-5,6,7,8-tetrahydro-[1,2,3]triazolo[4,5-c]azepin-4(1H)-one]	90%	2510 nM	–
O=C1NCCc2c1cnn2-c1ccnc(Cc2ccc(F)c(C(F)(F)F)c2)c1 [Example 23, 1-(2-(4-fluoro-3-(trifluoromethyl)benzyl)pyridin-4-yl)-1,5,6,7-tetrahydro-4H-pyrazolo[4,3-c]pyridin-4-one]	90%	158 nM	–
COCCN1CCc2c(cnn2-c2ccnc(Cc3cc(F)cc(C(F)(F)F)c3)c2)C1=O [Example 104, 1-(2-(3-fluoro-5-(trifluoromethyl)benzyl)pyridin-4-yl)-5-(2-methoxyethyl)-1,5,6,7-tetrahydro-4H-pyrazolo[4,3-c]pyridin-4-one]	94%	100 nM	–
Cc1nn(-c2ccnc(Cc3cccc(C(F)(F)F)c3)c2)c2c1C(=O)NCC2 [Example 78, 3-methyl-1-(2-(3-(trifluoromethyl)benzyl)pyridin-4-yl)-1,5,6,7-tetrahydro-4H-pyrazolo[4,3-c]pyridin-4-one]	94%	20 nM	–
O=C1NCCc2c1cnn2-c1cnnc(Cc2cc(F)cc(C(F)(F)F)c2)c1 [Example 17, 1-(6-(3-fluoro-5-(trifluoromethyl)benzyl)pyridazin-4-yl)-1,5,6,7-tetrahydro-4H-pyrazolo[4,3-c]pyridin-4-one]	96%	1260 nM	–
Cc1cc(Cc2ccnc(-n3ncc4c3CCNC4=O)c2)cnc1F [Example 6, 1-(4-((6-fluoro-5-methylpyridin-3-yl)methyl)pyridin-2-yl)-1,5,6,7-tetrahydro-4H-pyrazolo[4,3-c]pyridin-4-one]	82%	501 nM	–
O=C1NCCc2c1cnn2-c1ccnc(Cc2cc(F)cc(F)c2)c1 [Example 21, 1-(2-(3,5-difluorobenzyl)pyridin-4-yl)-1,5,6,7-tetrahydro-4H-pyrazolo[4,3-c]pyridin-4-one]	100%	1260 nM	–
COCCN1CCc2c(cnn2-c2cc(Cc3cc(F)cc(C(F)(F)F)c3)ccn2)C1=O [Example 106, 1-(4-(3-fluoro-5-(trifluoromethyl)benzyl)pyridin-2-yl)-5-(2-methoxyethyl)-1,5,6,7-tetrahydro-4H-pyrazolo[4,3-c]pyridin-4-one]	86%	31.6 nM	–
O=C1NCCc2c1nnn2-c1cc(Cc2cccc(C(F)(F)F)c2)ccn1 [Example 42, 1-(4-(3-(trifluoromethyl)benzyl)pyridin-2-yl)-1,5,6,7-tetrahydro-4H-[1,2,3]triazolo[4,5-c]pyridin-4-one]	90%	794 nM	–
COc1ncc(Cc2cc(-n3ncc4c3CCNC4=O)ccn2)cc1F [Example 72, 1-(2-((5-fluoro-6-methoxypyridin-3-yl)methyl)pyridin-4-yl)-1,5,6,7-tetrahydro-4H-pyrazolo[4,3-c]pyridin-4-one]	83%	1260 nM	–
O=C1NCCc2c1cnn2-c1ccnc(Cc2cc(F)c(F)c(Cl)c2)c1 [Example 66, 1-(2-(3-chloro-4,5-difluorobenzyl)pyridin-4-yl)-1,5,6,7-tetrahydro-4H-pyrazolo[4,3-c]pyridin-4-one]	100%	25.1 nM	–
O=C1NCCc2c1cnn2-c1ccnc(Cc2cc(F)cc(OC(F)F)c2)c1 [Example 62, 1-(2-(3-(difluoromethoxy)-5-fluorobenzyl)pyridin-4-yl)-1,5,6,7-tetrahydro-4H-pyrazolo[4,3-c]pyridin-4-one]	94%	79.4 nM	–

Reference: patent US20230002374A1, “GPR52 MODULATOR COMPOUNDS” (Heptares Therapeutics Limited, priority 2019, published 2023)
